# Read-outs that look alike come from different tables or passages of the source.
# Key:
# [1] = test system: hot flashes or other symptoms of hormonal variations
# hot flashes = conditions: cited from earlier work; for minimizing the occurrence and severity of hot flashes compared with placebo: randomized clinical trials (Loprinzi 2000; Stearns 2003)
# [2] = target: dopamine type 2 (D2) receptor (Homo sapiens, UniProt P14416); conditions: cited from earlier work
# D1 dopamine receptors = D1 dopamine receptors (Homo sapiens, UniProt P21728); conditions: cited from earlier work
# D1 dopamine receptors, sequence (P21728 whole entry): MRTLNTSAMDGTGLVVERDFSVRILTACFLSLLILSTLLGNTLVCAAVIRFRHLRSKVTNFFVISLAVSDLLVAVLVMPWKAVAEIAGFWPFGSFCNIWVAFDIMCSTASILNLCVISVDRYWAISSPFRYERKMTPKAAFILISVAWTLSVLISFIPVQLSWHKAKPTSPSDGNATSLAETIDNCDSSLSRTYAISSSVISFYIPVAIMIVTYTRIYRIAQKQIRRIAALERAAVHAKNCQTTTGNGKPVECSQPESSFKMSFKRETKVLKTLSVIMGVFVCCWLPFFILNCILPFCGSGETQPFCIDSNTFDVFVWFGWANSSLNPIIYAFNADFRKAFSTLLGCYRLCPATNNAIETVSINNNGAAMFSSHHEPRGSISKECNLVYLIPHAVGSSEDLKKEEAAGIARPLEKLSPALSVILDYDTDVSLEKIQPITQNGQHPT
# α1-adrenergic receptors = conditions: cited from earlier work
# α2-adrenergic receptors = conditions: cited from earlier work
# D2 dopamine receptor = D2 dopamine receptor (Homo sapiens, UniProt P14416); conditions: serial PET scans; cited from earlier work
# D2 dopamine receptor, sequence (P14416 whole entry): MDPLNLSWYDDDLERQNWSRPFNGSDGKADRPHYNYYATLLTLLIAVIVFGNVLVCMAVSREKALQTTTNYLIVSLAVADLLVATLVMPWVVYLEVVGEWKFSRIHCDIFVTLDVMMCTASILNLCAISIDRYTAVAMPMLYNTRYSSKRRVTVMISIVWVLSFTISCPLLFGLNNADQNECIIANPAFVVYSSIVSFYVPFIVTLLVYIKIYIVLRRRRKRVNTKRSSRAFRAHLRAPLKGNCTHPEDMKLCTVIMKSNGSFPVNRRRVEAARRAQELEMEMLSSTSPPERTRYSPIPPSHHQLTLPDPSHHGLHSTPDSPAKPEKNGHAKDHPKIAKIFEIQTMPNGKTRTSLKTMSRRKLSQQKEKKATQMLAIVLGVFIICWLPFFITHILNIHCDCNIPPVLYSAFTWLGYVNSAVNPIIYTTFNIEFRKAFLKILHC
# [3] = Patient 2, risperidone 2 mg per day
# [4] = Patient 3, risperidone 1 mg daily resumed
# dopamine type 2 (D2) receptor, sequence (P14416 whole entry): as above
compound,measurement,setting,value
estrogen,response of perimenopausal symptoms to earlier therapies,"[1]; Patient 3, perimenopausal person",responded well
Clc1cccc(Cl)c1N=C1NCCN1 [clonidine],adverse effects,"hot flashes; randomized clinical trials, including dry mouth, dizziness, and blurred vision",common
same,efficacy against hot flashes compared with placebo,"hot flashes; randomized clinical trials, tamoxifen-induced hot flashes (Goldberg 1994; Pandya 2000)",moderately more efficacious than placebo
COc1ccc(C(CN(C)C)C2(O)CCCCC2)cc1 (stereo not drawn) [venlafaxine],minimizing the occurrence and severity of hot flashes compared with placebo,hot flashes,more effective than placebo
Fc1ccc([C@@H]2CCNC[C@H]2COc2ccc3c(c2)OCO3)cc1 [paroxetine],minimizing the occurrence and severity of hot flashes compared with placebo,hot flashes,more effective than placebo
COC(=O)C1=C(C)NC(C)=C(C(=O)OC)C1c1ccccc1[N+](=O)[O-] [adalate],blood pressure after sublingual dose for sudden onsets of high blood pressure,"[1]; human, in vivo",frequently dropped below critical level
Cc1nc2n(c(=O)c1CCN1CCC(c3noc4cc(F)ccc34)CC1)CCCC2 [risperidone],affinity for D2 receptor,[2],high affinity
same,binding to D1 dopamine receptors,D1 dopamine receptors,does not bind
same,affinity for α1-adrenergic receptors,α1-adrenergic receptors,high affinity
same,affinity for α2-adrenergic receptors,α2-adrenergic receptors,lower affinities
same,"associated symptoms, such as palpitation and anxiety","[1]; Patient 1, risperidone 2 mg/day",improved significantly
same,time to reoccurrence of hot flashes after discontinuing the treatment,"[1]; Patient 1, risperidone 2 mg/day discontinued",2 to 3 days
same,frequency of hot flashes,"[1]; Patient 1, risperidone 2 mg/day, after three days of treatment",once per 1-2 weeks
same,time to alleviation of symptoms after resuming treatment,"[1]; Patient 1, risperidone resumed",3 to 4 days
same,hot flashes after treatment was resumed,"[1]; Patient 2, risperidone 2 mg daily resumed",has not suffered another hot flash since
same,blood pressure,[1]; [3],stabilized
same,sleep,[1]; [3],slept well
same,occurrence of hot flashes,"[1]; Patient 2, risperidone 2 mg per day, by day 7",completely eliminated
same,occurrence of hot flashes,"[1]; Patient 2, risperidone 2 mg per day, two days after starting",reduced markedly
same,time to return of hot flashes and night sweats after treatment was completely discontinued,"[1]; Patient 2, risperidone tapered off over 2 days",two
same,hot flashes after treatment was resumed,[1]; [4],no longer experienced hot flashes
same,quality of sleep and life,[1]; [4],improved
same,frequency and intensity of hot flashes,"[1]; Patient 3, risperidone 1 mg per night, three days after starting, seven hot flashes per day before",markedly reduced
same,hot flashes after dose reduction,"[1]; Patient 3, three months later, risperidone 0.25 mg or less per day",still markedly eliminated
same,residual hot flashes,"[1]; Patient 4, risperidone 1 mg at bedtime for two days, then 2 mg per night, with hormone replacement therapy, three days after starting",completely eliminated
same,blood pressure,"[1]; Patient 4, risperidone 2 mg per night",stabilized within the normal range
OCCOCCN1CCN(C2=Nc3ccccc3Sc3ccccc32)CC1 [quetiapine],dissociation from the D2 receptor,D2 dopamine receptor,rapidly disassociates
